From patent publication US20020039787A1, “Method for culturing cells” (priority 2000, published 2002)

Key:
[1] = tested on: human myometrial microvascular endothelial cells (MEC); test: Endothelial cell proliferation assay (CellTitre 96 MTS bioassay); format: cell-based; conditions: for effect of cAMP promoter on bFGF-stimulated MEC proliferation: IBMX 330 μM, dibutyryl cAMP 50 μM; for stimulation of MEC proliferation by maximal concentrations of growth factors: P5 MEC, M199 with 20% HS, 6 days (FIG. 5); for growth factor-stimulated MEC proliferation with combinations of HS and FCS in the medium: compared with HS alone (FIG. 3B); for dose dependence of stimulated MEC proliferation: concentration range 0.01-20 ng/ml (FIG. 6); for EC50 of growth factor-induced MEC proliferation: 6 days, absorbance as % of maximal response
Description: The CellTitre 96 MTS tetrazolium-based bioassay (Promega, Madison, WT, USA), where the absorbance of the formazan product is directly proportional to the number of viable cells, was used to indirectly measure cell number after incubation of MEC with various mitogens. It was initially established that the MTS bioassay was linear from 0-2 ×10^4 MEC/well. MEC in basal M199 medium (M199 medium containing 5% PCS, 2 mM glutamine, antibiotic/antimycotic mixture) were seeded in triplicate onto fibronectin (10 μg/ml) coated wells of 96 well plates at 2000 cells/well and allowed to attach the quiesce for 36 hours at 37° C. in 5% CO2/air. Medium was replaced with the standard or complex M199 culture medium (day 0) with or without the following growth factors: 10 ng/ml vascular endothelial growth factor (VEGF121;gift from Dr J Abrahams, Scios Inc, Sunnyvale, Calif., USA), 0.01-20 ng/ml VEGF165 (R & D Systems, Minneapolis, Minn., USA) bFGF (0.01-10 ng/ml), 120 μg/ml EC growth factor (ECGF; Boehringer Mannheim) 50 ng/ml epidermal growth factor (EGF; R & D Systems), depending on the assay conditions being tested. In some experiments different concentrations of HS and FCS and combinations of both were tested and in other experiments various component of the complex medium were omitted. Cells were incubated at 37° C. in 5% CO2/air for 6 or 10 days, with medium changes every 2 days. Twenty μl 3-(4,5-dimethylthiazol-2-yl)-5-(3-carboxymethoxyphenyl)-2-(4sulphophenyl)-2H-tetrazolium (MTS) was added to the cells and incubated 2 hours at 37° C. and absorbance measured at 490 nm using a plate reader (Emax, Molecular Devices, Sunnyvale, Calif., USA). Absorbance was also measured on day 0 and this value subtracted from all results to determine MEC growth over 6 days.

[2] = tested on: human myometrial microvascular endothelial cells (MEC); test: MEC migration assay (monolayer wound assay); format: cell-based; set-up: key to migration of MEC into denuded area, Early Passage MEC (P4) / migration of MEC into denuded area, Late Passage MEC (P12): +/−: very low; +: low; ++: medium; +++: high coverage of the denuded area; conditions: for migration of MEC in response to growth factor: 48 hour incubation in basal medium, high and low passage MEC; for migration of MEC into denuded area, Early Passage MEC (P4) / migration of MEC into denuded area, Late Passage MEC (P12): semi-quantitative coverage of denuded area after wounding, basal medium
Description: […] The medium was changed to basal medium, the MEC monolayers wounded using a plastic pasteur pipette and photographed using a Zeiss inverted phase contrast microscope. Duplicate wells were incubated with or without VEGF165 (10 ng/ml) or bFGF (5 ng/ml) in the presence and absence of 40 μg/ml rabbit anti human VEGF antibody (Gargett et al., 1999) or 50 μg/ml goat anti-human bFGF antibody (R & D Systems) respectively for 48 hours at 37° C. in 5% CO/air and the same field of view was rephotographed.
A characteristic feature of EC is their ability to migrate in response to certain growth factors (Goodman et al., 1985; Ferrara and DavisSmyth, 1997). The migration of early and late passage myometrial MEC in response to bFGF and VEGF was examined using the monolayer wound assay (Goodman el al., 1985) in the presence and absence of neutralising bFGF and VEGF antibodies.

[3] = over 10 days, 5 ng/ml bFGF, 15% HS/5% FCS (FIG. 4)
[4] = early (low) passage MEC (P1, P2, P3)
[5] = late (high) passage MEC (P10, P13)

| Compound | effect of cAMP promoter on bFGF-stimulated MEC proliferation [1, 3] | stimulation of MEC proliferation by maximal concentrations of growth factors [1] | growth factor-stimulated MEC proliferation with combinations of HS and FCS in the medium [1] | dose dependence of stimulated MEC proliferation [1] | EC50 of growth factor-induced MEC proliferation [1, 4] [ng/mL] | difference in absorbance between maximal and minimal response measured at day 6 ([1]; high passage MEC, n=2) | EC50 of growth factor-induced MEC proliferation [1, 5] [ng/mL] | difference in absorbance between maximal and minimal response measured at day 6 ([1]; low passage MEC, n=3) | migration of MEC in response to growth factor [2] | migration of MEC into denuded area, Early Passage MEC (P4) [2] | migration of MEC into denuded area, Late Passage MEC (P12) [2] | other results |
| --- | --- | --- | --- | --- | --- | --- | --- | --- | --- | --- | --- | --- |
| C[C@]12CCC(=O)C=C1CC[C@@H]1[C@@H]2[C@@H](O)C[C@@]2(C)[C@H]1CC[C@]2(O)C(=O)CO [Hydrocortisone, hydrocortisone, reference compound] | – | – | – | – | – | – | – | – | – | – | – | effect on bFGF-induced myometrial MEC proliferation ([1]; in the presence or absence of IBMX or dibutyryl cAMP (results not shown)): no significant effect |
| CC(C)Cn1c(=O)n(C)c(=O)c2[nH]cnc21 [IBMX, 3-isobutyl-1-methyl xanthine, reference compound] | significantly greater proliferation of myometrial MEC over 10 days in the absence | – | – | – | – | – | – | – | – | – | – | – |
| CCCC(=O)Nc1ncnc2c1ncn2[C@@H]1O[C@@H]2COP(=O)(O)O[C@H]2[C@H]1OC(=O)CCC [dibutyryl cAMP, N-6, 2 ′-O-dibutyryl adenosine 3′,5′-cyclic monophosphate, reference compound] | significantly greater proliferation of myometrial MEC over 10 days in the absence | – | – | – | – | – | – | – | – | – | – | effect of cAMP promoter on bFGF-stimulated MEC proliferation ([1]; after 5 days, 5 ng/ml bFGF (FIG. 4)): greater growth was observed in the absence |
| EGF: epidermal growth factor (R & D Systems) (NSDSECPLSHDGYCLHDGVCMYIEALDKYACNCVVGYIGERCQYRDLKWWELR; Epidermal growth factor; UniProt P01133 971-1023, looked up) | – | weakly mitogenic | – | – | – | – | – | – | – | – | – | – |
| bFGF: mitogen, growth factor (Gibco BRL) | – | maximal stimulation of MEC proliferation | even greater levels of MEC proliferation | dose dependent manner | ~0.6 | 0.82 | ~0.9 | 0.50 ±0.07 | migrated into the denuded area to a comparable extent | +++ | ++ | – |
| vascular endothelial growth factor [VEGF] | – | – | even greater levels of MEC proliferation | dose dependent manner | ~1.5 | 0.70 | ~1.6 | 0.51 ±0.09 | migrated into the denuded area to a comparable extent | +++ | +++ | – |
